Results on 14 compounds are retold here after patent US20250170248A1, “SMARCA DEGRADERS AND USES THEREOF” (Kymera Therapeutics, Inc., priority 2021, published 2025).

Common to all, as to type: cell-based
Assay [1] has as its target T1, SMARCA2 (Homo sapiens, UniProt P51531). Kind of assay: MSD SMARCA2 degradation in A549 cell line. As to conditions: for Dmax: A549, A549 cells; for Dmax / DC50: 24 h; for DC50 / SMARCA2 MSD A549 degradation 24 h: Average Dmax %: A549 cells; for DC50: read-out: SMARCA2 MSD A549 degradation 24 h: Average external-Abs DC50. The method, boiled down:
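SMARCA2 protein remaining after 24 h exposure of A549 cells (top concentration 1000 nM, 3-fold dilutions) was measured by MSD electrochemiluminescence immunoassay of cell lysates. Results are given as binned DC50 and maximal degradation (Dmax) codes.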

For assay [2], the target named is T1, SMARCA2. Briefly: SMARCA2 Western blot degradation in MV4-11 cells. Also noted: SMARCA2/SMARCA4 protein degradation selectivity in MV4-11 cells; endogenous in cells; host or cells: MV4-11. Particulars: for Dmax: MV4-11, MV4-11 cells, read-out: SMARCA2 MSD MV411 degradation 24 h: average Dmax %; for Dmax / DC50 / SMARCA2 MSD MV411 degradation 24 h: average Dmax %: 24 h; for DC50 / Selectivity in MV411 / SMARCA2 MSD MV411 degradation 24 h: average Dmax %: MV4-11 cells; for DC50: read-out: SMARCA2 MSD MV411 degradation 24 h: Mean external-Abs DC50; for Selectivity in MV411: SMARCA2/4 selectivity. For orientation: In western blotting, separated proteins are transferred to a membrane and probed.

Assay [3] concerns the target T2, SMARCA4 (Homo sapiens, UniProt P51532).
T2 construct: SMARCA2/SMARCA4 protein degradation selectivity in MV4-11 cells; endogenous in cells; host or cells: MV4-11
Briefly: SMARCA4 Western blot degradation in MV4-11 cells. As to conditions: for Dmax: MV4-11, MV4-11 cells, read-out: SMARCA4 MSD MV411 degradation 24 h: average Dmax %; for Dmax / DC50: 24 h; for DC50 / SMARCA4 MSD MV411 degradation 24 h: average Dmax %: MV4-11 cells; for DC50: read-out: SMARCA4 MSD MV411 degradation 24 h: Mean external-Abs DC50. The procedure, abridged:
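Fluorescent LI-COR imaging of Western blots quantified SMARCA2 and SMARCA4 protein remaining in MV4-11 cells after 24 h of compound treatment. β-actin was the loading control, and DC50, Dmax and SMARCA2/4 selectivity are given as letter-coded ranges.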

T1 sequence (P51531 whole entry): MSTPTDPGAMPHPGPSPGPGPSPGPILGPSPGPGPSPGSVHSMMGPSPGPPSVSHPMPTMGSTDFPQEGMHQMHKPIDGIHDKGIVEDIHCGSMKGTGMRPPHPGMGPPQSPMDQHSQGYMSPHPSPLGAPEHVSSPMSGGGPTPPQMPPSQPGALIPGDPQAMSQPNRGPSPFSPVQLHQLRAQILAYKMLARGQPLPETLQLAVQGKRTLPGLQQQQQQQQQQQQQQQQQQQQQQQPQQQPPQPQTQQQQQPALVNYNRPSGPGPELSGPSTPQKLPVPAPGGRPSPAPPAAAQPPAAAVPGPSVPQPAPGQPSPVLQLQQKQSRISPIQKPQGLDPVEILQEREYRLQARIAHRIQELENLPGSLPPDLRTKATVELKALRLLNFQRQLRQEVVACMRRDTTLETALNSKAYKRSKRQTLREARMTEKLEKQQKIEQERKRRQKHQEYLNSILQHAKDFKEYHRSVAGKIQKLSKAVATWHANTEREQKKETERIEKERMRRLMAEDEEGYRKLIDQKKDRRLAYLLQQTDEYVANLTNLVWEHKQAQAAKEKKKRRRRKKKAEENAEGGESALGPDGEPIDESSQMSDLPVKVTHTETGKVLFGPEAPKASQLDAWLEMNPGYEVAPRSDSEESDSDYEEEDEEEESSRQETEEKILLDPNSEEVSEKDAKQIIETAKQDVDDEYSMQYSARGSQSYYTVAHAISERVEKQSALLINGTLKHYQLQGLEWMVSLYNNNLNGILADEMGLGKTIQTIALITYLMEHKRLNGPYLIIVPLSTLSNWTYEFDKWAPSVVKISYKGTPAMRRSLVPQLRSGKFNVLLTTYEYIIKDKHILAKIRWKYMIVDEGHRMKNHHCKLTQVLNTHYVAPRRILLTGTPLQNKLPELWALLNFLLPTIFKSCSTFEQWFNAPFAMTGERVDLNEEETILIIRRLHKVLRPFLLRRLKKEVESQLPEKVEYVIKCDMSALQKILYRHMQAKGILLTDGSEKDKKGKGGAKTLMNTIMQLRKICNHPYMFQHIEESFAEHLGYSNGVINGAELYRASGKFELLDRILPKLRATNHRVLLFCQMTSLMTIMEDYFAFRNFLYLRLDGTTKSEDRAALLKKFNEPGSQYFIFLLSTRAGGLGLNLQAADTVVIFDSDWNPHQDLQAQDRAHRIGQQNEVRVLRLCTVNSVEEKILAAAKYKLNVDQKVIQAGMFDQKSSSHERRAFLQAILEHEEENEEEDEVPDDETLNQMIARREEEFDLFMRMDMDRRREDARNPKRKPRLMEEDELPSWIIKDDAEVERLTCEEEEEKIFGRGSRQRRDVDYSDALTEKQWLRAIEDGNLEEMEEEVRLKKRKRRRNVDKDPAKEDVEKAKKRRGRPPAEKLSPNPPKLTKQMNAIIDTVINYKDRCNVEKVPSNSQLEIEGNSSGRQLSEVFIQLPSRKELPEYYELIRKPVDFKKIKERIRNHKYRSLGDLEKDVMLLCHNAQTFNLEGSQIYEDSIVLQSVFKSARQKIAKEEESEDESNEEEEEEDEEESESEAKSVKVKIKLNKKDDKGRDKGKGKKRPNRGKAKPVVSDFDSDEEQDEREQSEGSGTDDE
T2 sequence (P51532 whole entry): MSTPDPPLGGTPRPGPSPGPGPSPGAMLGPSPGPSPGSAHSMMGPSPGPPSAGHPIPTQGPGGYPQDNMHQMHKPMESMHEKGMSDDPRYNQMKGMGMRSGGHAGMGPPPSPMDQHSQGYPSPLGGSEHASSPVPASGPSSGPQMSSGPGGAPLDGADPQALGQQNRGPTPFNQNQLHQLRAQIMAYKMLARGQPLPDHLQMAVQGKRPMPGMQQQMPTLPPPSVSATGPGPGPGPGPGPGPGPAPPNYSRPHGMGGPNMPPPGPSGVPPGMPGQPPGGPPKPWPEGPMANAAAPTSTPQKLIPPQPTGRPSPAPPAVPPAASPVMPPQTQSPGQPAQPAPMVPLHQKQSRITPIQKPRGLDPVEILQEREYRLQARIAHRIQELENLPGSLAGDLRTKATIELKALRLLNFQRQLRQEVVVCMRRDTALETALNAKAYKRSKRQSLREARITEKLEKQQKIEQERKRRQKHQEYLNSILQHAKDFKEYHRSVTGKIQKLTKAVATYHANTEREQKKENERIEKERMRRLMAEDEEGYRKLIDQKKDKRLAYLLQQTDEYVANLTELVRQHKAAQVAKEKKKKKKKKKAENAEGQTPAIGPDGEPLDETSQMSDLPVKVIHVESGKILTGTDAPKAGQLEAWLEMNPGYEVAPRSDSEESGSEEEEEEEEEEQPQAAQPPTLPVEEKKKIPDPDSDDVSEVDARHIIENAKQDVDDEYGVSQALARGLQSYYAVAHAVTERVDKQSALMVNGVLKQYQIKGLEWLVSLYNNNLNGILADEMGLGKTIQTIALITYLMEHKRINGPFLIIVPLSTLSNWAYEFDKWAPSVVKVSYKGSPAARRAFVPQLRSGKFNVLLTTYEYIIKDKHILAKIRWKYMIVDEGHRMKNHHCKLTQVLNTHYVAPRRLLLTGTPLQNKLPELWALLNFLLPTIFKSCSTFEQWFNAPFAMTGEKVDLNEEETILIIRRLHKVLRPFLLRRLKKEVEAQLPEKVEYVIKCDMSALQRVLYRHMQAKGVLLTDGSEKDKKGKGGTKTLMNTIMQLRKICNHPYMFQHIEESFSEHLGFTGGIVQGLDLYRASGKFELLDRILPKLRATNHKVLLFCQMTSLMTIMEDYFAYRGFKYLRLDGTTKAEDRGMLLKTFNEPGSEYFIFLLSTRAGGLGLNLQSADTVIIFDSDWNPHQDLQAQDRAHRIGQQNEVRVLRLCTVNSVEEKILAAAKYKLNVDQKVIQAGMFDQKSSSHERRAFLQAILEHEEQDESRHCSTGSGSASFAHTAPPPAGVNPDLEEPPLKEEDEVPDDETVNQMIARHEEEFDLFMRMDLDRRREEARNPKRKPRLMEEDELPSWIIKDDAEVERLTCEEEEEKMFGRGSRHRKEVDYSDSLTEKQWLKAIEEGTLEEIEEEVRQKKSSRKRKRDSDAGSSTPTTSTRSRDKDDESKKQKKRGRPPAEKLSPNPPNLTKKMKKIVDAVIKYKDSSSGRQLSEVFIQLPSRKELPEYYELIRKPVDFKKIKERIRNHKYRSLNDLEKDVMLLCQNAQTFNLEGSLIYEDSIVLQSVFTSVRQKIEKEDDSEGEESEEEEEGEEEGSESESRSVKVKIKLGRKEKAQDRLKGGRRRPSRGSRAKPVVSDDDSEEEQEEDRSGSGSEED

By Dmax is commonly meant the greatest extent of degradation seen. As a reminder, the DC50 is the concentration at which degradation of the target reaches its halfway point. In the case of `Cc1ncsc1-c1ccc(CNC(=O)[C@@H]2C[C@@H](O)CN2C(=O)C(c2cc(N3CCC(CCN4CCC(c5cnc(N6CCc7[nH]c8nnc(-c9ccccc9O)cc8c7[C@H]6C)nc5)CC4)CC3)no2)C(C)C)cc1` (stereo partly shown) [I-7], in assay [1], the Dmax was greater than 90% and the DC50 was 0.01 to 0.05 µM. Further, in assay [2], the greatest degradation seen (Dmax) is greater than 90%, the DC50 was 0.001 to 0.01 µM and the “Selectivity in MV411” value is given as “C (C (10-100 fold))”. In addition, in assay [3], the Dmax is greater than 90% and the DC50 is 0.01 to 0.1 µM.

Take `C#Cc1cnc(CNC(=O)[C@@H]2C[C@@H](O)CN2C(=O)C(c2cc(OCCN3CCC(N4CCC(N5CCC(CN6CCN7c8cc(-c9ccccc9O)nnc8NC[C@H]7C6)CC5)CC4)CC3)no2)C(C)C)c(OC)c1` (stereo partly shown) [I-303]: in assay [1], the Dmax is greater than 90% and the half-maximal degradation concentration (DC50) is greater than 0.1 µM. In assay [2], the Dmax was in the range of 70 to 90%, the 50% degradation concentration (DC50) was 0.01 to 0.1 µM and the “Selectivity in MV411” value was “B (B (>100-500 fold))”. In addition, in assay [3], the maximal degradation (Dmax) is less than 50% and the DC50 is greater than 0.1 µM.

`C#Cc1ccc(CNC(=O)[C@@H]2C[C@@H](O)CN2C(=O)[C@@H](NC(=O)N2CC3(CC(N4CCC(N5CCC(N6CCc7[nH]c8nnc(-c9ccccc9O)cc8c7[C@H]6C)CC5)CC4)C3)C2)C(C)(C)C)cc1` (single isomer, unassigned) [I-179]: the values for the Dmax in assay [1], in assay [2] and in assay [3] were greater than 90%, 70 to 90% and 50 to 70%, respectively. Moreover, the results for the DC50 in assay [1], in assay [2] and in assay [3] were greater than 0.1 µM, 0.01 to 0.1 µM and greater than 0.1 µM, respectively. In addition, the “Selectivity in MV411” value in assay [2] is “B (B (>100-500 fold))”.

Consider `C#Cc1ccc(CNC(=O)[C@@H]2C[C@@H](O)CN2C(=O)[C@@H](NC(=O)[C@H]2CCC3(CC2)C[C@H](N2CCC(N4CC5(CC(N6CCN7c8cc(-c9ccccc9O)nnc8NC[C@H]7C6)C5)C4)CC2)C3)C(C)(C)C)c(Cl)c1` (single isomer, unassigned) [I-220], for which the Dmax in assay [1] is greater than 90%; in assay [2], 70 to 90%; in assay [3] it was less than 50%. In addition, the DC50 in assay [1] is greater than 0.1 µM; in assay [2], 0.01 to 0.1 µM; in assay [3] it was greater than 0.1 µM. Besides, the “Selectivity in MV411” value in assay [2] is “B (B (>100-500 fold))”.

In the case of `C#Cc1ccc(CNC(=O)[C@@H]2C[C@@H](O)CN2C(=O)[C@@H](NC(=O)N2CC3(CC(N4CCC(c5cnc(N6CCc7[nH]c8nnc(-c9ccccc9O)cc8c7[C@H]6C)nc5)CC4)C3)C2)C(C)(C)CCO)c(Cl)c1` (single isomer, unassigned) [I-317], in assay [1], the Dmax was greater than 90% and the DC50 is 0.01 to 0.05 µM. In addition, in assay [2], the Dmax was 70 to 90%, the 50% degradation concentration (DC50) was 0.001 to 0.01 µM and the “Selectivity in MV411” value was “C (C (10-100 fold))”. For the same compound, in assay [3], the Dmax lay in the range of 70 to 90% and the 50% degradation concentration (DC50) is greater than 0.1 µM.

As to `Cc1ncsc1-c1ccc(CNC(=O)[C@@H]2C[C@@H](O)CN2C(=O)[C@@H](NC(=O)[C@H]2CC3(C2)C[C@H](N2CCN(c4cnc(N5CCN6c7cc(-c8ccccc8O)nnc7NC[C@H]6C5)nc4)CC2)C3)C(C)(C)C)cc1` (stereo partly shown) [I-18], the “SMARCA2 MSD A549 degradation 24 h: Average Dmax %” value in assay [1] is reported as “D (D (<50% degradation))”. In assay [2], the “SMARCA2 MSD MV411 degradation 24 h: average Dmax %” value is “D (D (<50% degradation))”, the half-maximal degradation concentration (DC50) was 0.01 to 0.1 µM and the “Selectivity in MV411” value is given as “C (C (10-100 fold))”. For the same compound, in assay [3], the Dmax is less than 50% and the DC50 is 0.01 to 0.1 µM.

`C#Cc1ccc(CNC(=O)[C@@H]2C[C@@H](O)CN2C(=O)[C@@H](NC(=O)[C@H]2CCC3(CC2)C[C@H](N2CCC(N4CCC(N5CCN6c7cc(-c8ccccc8O)nnc7NC[C@H]6C5)CC4)CC2)C3)C(C)(C)C)c(F)c1` (stereo partly shown) [I-258]: in assay [1], the “SMARCA2 MSD A549 degradation 24 h: Average Dmax %” value is “B (B (>70-90% degradation))” and the DC50 was greater than 0.1 µM. Moreover, in assay [2], the “SMARCA2 MSD MV411 degradation 24 h: average Dmax %” value is “C (C (50-70% degradation))”, the half-maximal degradation concentration (DC50) lay within 0.01 to 0.1 µM and the “Selectivity in MV411” value was “C (C (10-100 fold))”. Further, in assay [3], the “SMARCA4 MSD MV411 degradation 24 h: average Dmax %” value is recorded as “D (D (<50% degradation))” and the DC50 is greater than 0.1 µM.

For `Cc1ncsc1-c1ccc(CNC(=O)[C@@H]2C[C@@H](O)CN2C(=O)[C@@H](NC(=O)[C@H]2CC3(C2)C[C@H](N2CCC(c4ccnc(N5CCN6c7cc(-c8ccccc8O)nnc7NC[C@H]6C5)n4)CC2)C3)C(C)(C)C)cc1` (single isomer, unassigned) [I-27], in assay [1], the “SMARCA2 MSD A549 degradation 24 h: Average Dmax %” value is recorded as “B (B (>70-90% degradation))” and the DC50 was in the range of 0.01 to 0.05 µM. For the same compound, in assay [2], the “SMARCA2 MSD MV411 degradation 24 h: average Dmax %” value is listed as “A (A (>90% degradation))”, the DC50 is 0.001 to 0.01 µM and the “Selectivity in MV411” value is “A (A (>500 fold))”. In addition, in assay [3], the “SMARCA4 MSD MV411 degradation 24 h: average Dmax %” value was “D (D (<50% degradation))” and the half-maximal degradation concentration (DC50) was greater than 0.1 µM.

As to `C#CCOc1cc(C(C(=O)N2C[C@H](O)C[C@H]2C(=O)NCc2ccc(-c3scnc3C)cc2O[C@H]2CC[C@H](N3CCC(c4cnc(N5CCc6[nH]c7nnc(-c8ccccc8O)cc7c6[C@@H]5C)nc4)CC3)CC2)C(C)C)on1` (single isomer, unassigned) [I-40], the Dmax in assay [1], in assay [2] and in assay [3] was 70 to 90% throughout. In addition, the values for the 50% degradation concentration (DC50) in assay [1], in assay [2] and in assay [3] were greater than 0.1 µM, 0.01 to 0.1 µM and greater than 0.1 µM, respectively. Moreover, the “Selectivity in MV411” value in assay [2] is given as “D (D (<10 fold))”.

For the compound `Cc1ncsc1-c1ccc(CNC(=O)[C@@H]2C[C@@H](O)CN2C(=O)C(c2cc(OCCCCN3CCC(c4cnc(N5CCN6c7cc(-c8ccccc8O)nnc7NC[C@H]6C5)nc4)CC3)no2)C(C)C)cc1` (stereo partly drawn) [I-50, (2S,4R)-4-hydroxy-1-(2-(3-(4-(4-(2-((S)-2-(2-hydroxyphenyl)-6a,7,9,10-tetrahydro-5H-pyrazino[1′,2′:4,5]pyrazino[2,3-c]pyridazin-8(6H)-yl)pyrimidin-5-yl)piperidin-1-yl)butoxy)isoxazol-5-yl)-3-methylbutanoyl)-N-(4-(4-methylthiazol-5-yl)benzyl)pyrrolidine-2-carboxamide], in assay [1], the greatest degradation seen (Dmax) is greater than 90% and the DC50 is less than 0.01 µM. For the same compound, in assay [2], the maximal degradation (Dmax) is greater than 90%, the DC50 is less than 0.001 µM and the “Selectivity in MV411” value is reported as “D (D (<10 fold))”. Also, in assay [3], the Dmax was greater than 90% and the DC50 was 0.001 to 0.01 µM.

Consider `C#Cc1ccc(CNC(=O)[C@@H]2C[C@@H](O)CN2C(=O)[C@@H](NC(=O)N2CC3(CC(N4CCC(c5cnc(N6CCc7[nH]c8nnc(-c9ccccc9O)cc8c7[C@@H]6C)s5)CC4)C3)C2)C(C)(C)C)cc1` [I-335], for which, in assay [1], the Dmax fell in the range of 70 to 90% and the DC50 was greater than 0.1 µM. Besides, in assay [2], the Dmax lay within 50 to 70%, the DC50 lay in the range of 0.01 to 0.1 µM and the “Selectivity in MV411” value is recorded as “D (D (<10 fold))”. Moreover, in assay [3], the greatest degradation seen (Dmax) lay within 70 to 90% and the DC50 is greater than 0.1 µM.

With `C#Cc1ccc(CNC(=O)[C@@H]2C[C@@H](O)CN2C(=O)[C@@H](NC(=O)[C@H]2CCC3(CC2)C[C@H](N2CCC(N(C)CCN4CCN5c6cc(-c7ccccc7O)nnc6NC[C@H]5C4)CC2)C3)C(C)(C)C)cc1` (single isomer, unassigned) [I-246], in assay [1], the Dmax is greater than 90% and the DC50 is greater than 0.1 µM. Further, in assay [2], the Dmax was in the range of 70 to 90%, the DC50 was 0.01 to 0.1 µM and the “Selectivity in MV411” value was “C (C (10-100 fold))”. For the same compound, in assay [3], the Dmax was 50 to 70% and the half-maximal degradation concentration (DC50) was greater than 0.1 µM.

For `C#Cc1ccc(CNC(=O)[C@@H]2C[C@@H](O)CN2C(=O)[C@@H](NC(=O)[C@H]2CCC3(CC2)C[C@H](N2CCN(c4cnc(N5CCN6c7cc(-c8ccccc8O)nnc7NC[C@H]6C5)nc4)CC24CC4)C3)C(C)(C)C)cc1` (stereo partly shown) [I-267], in assay [1], the “SMARCA2 MSD A549 degradation 24 h: Average Dmax %” value is reported as “B (B (>70-90% degradation))” and the DC50 lay in the range of 0.05 to 0.1 µM. Further, in assay [2], the “SMARCA2 MSD MV411 degradation 24 h: average Dmax %” value is reported as “B (B (>70-90% degradation))”, the DC50 was in the range of 0.01 to 0.1 µM and the “Selectivity in MV411” value is “B (B (>100-500 fold))”. Besides, in assay [3], the “SMARCA4 MSD MV411 degradation 24 h: average Dmax %” value is “D (D (<50% degradation))” and the DC50 was greater than 0.1 µM.

As for `C#Cc1ccc(CNC(=O)[C@@H]2C[C@@H](O)CN2C(=O)[C@@H](NC(=O)[C@H]2CC3(CC[C@H](N4CCN(c5cnc(N6CCc7[nH]c8nnc(-c9ccccc9O)cc8c7[C@H]6C)nc5)CC4)CC3)C2)C(C)(C)C)cc1` (single isomer, unassigned) [I-300], in assay [1], the “SMARCA2 MSD A549 degradation 24 h: Average Dmax %” value was “A (A (>90% degradation))” and the DC50 is greater than 0.1 µM. In addition, in assay [2], the “SMARCA2 MSD MV411 degradation 24 h: average Dmax %” value is “B (B (>70-90% degradation))”, the 50% degradation concentration (DC50) lay within 0.01 to 0.1 µM and the “Selectivity in MV411” value is given as “C (C (10-100 fold))”. For the same compound, in assay [3], the “SMARCA4 MSD MV411 degradation 24 h: average Dmax %” value is on record as “D (D (<50% degradation))” and the DC50 is greater than 0.1 µM.
